Laboratory results published in PubChem BioAssay (NCI).
Several values for one entry are separate records, joined by “and”; a condition that tells them apart may be missing. Equal entries are not always repeated.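 Exposure lasted 48 hours, with cells grown in 96-well plates and compounds tested at five concentrations. GI50: concentration for 50% inhibition of growth. TGI denotes the concentration required for complete inhibition of growth.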

Experiments:
Assay in all cases: DTP human tumour cell line panel, 48 h
[1] = system: COLO 205 colon
[2] = system: HT29 colon
[3] = system: IGROV1 ovarian
[4] = system: OVCAR-8 ovarian
[5] = system: SN12C renal
[6] = system: SW-620 colon
[7] = system: HCT-116 colon
[8] = system: HCT-15 colon
[9] = system: LOX IMVI melanoma
[10] = system: SF-539 CNS

Row | SMILES | TGI [1] | TGI [2] | TGI [3] | TGI [4] | TGI [5] | TGI [6] | TGI [7] | TGI [8] | TGI [9] | TGI [10] | GI50 [1] | GI50 [7] | GI50 [8] | GI50 [2] | GI50 [3] | GI50 [9] | GI50 [4] | GI50 [10] [µM] | GI50 [5] | GI50 [6]
1 | COc1cc2cnc3c4ccccc4ccc3c2cc1OC | > 100 µM | > 100 µM | > 100 µM | > 100 µM | > 100 µM | > 100 µM | – | – | – | – | – | – | – | – | – | – | – | – | – | –
2 | CCN(CC)CC(=O)N1CCc2c([nH]c3ccccc23)C1c1cccnc1 (stereo unspecified) | – | > 100 µM | > 100 µM | > 100 µM | > 100 µM | > 100 µM | > 100 µM | > 100 µM | > 100 µM | > 100 µM | – | – | – | – | – | – | – | – | – | –
3 | COc1cccc(/C=C2\CCC(C)(CN(C)C)C2=O)c1 (stereo unspecified) | > 100 µM | > 100 µM | > 100 µM | > 100 µM | > 100 µM | > 100 µM | > 100 µM | > 100 µM | > 100 µM | > 100 µM | – | – | – | – | – | – | – | – | – | –
4 | Cn1c(/C(C#N)=C/c2ccc3ccccc3c2)cc2ccccc21 | > 26.1 µM | > 100 µM | > 100 µM | > 100 µM | > 100 µM | > 100 µM | > 100 µM | > 100 µM | > 100 µM | 0.941 µM | 0.309 µM | 0.0774 µM | 0.0934 µM | 0.353 µM | 0.225 µM | 0.12 µM | 0.421 µM | 0.101 | 0.389 µM | 0.0935 µM
5 | C=CCO/N=C/c1cc(NC(=S)c2ccoc2C)ccc1Cl | 27.5 µM | 26.2 µM | 32.2 µM | 33.9 µM | 30.3 µM | > 100 µM | > 100 µM | 23.8 µM | 44.5 µM | 44.6 µM | – | – | – | – | – | – | – | – | – | –
6 | CC(=O)N[C@H](C(=O)N[C@@H](CCCNC(=N)N)C(=O)N[C@@H](CCCCN)C(=O)N[C@@H](CCCNC(=N)N)C(=O)N[C@]1(C)CCCCCC/C=C\CCC[C@@](C)(C(=O)N[C@@H](CCCNC(=N)N)C(=O)N[C@@H](CCC(=O)O)C(=O)N[C@@H](CC(C)C)C(=O)N[C@H](C(=O)N[C@@H](CCC(=O)O)C(N)=O)C(C)C)NC(=O)[C@H](CCC(N)=O)NC(=O)[C@H](CC(C)C)NC(=O)[C@H](CC(C)C)NC(=O)[C@H](CCCNC(=N)N)NC(=O)[C@H](CCCNC(=N)N)NC(=O)[C@H](CC(C)C)NC1=O)C(C)C | 4.54 µM | 41.3 µM | – | > 50 µM | > 50 µM | 20.2 µM | 37.6 µM | 47.3 µM | 43 µM | 15.8 µM | 1.3 µM | 12 µM | 3.02 µM | 7.91 µM | – | 10.1 µM | 1.6 µM | 1.97 | 2.33 µM | 7.84 µM
7 | COC1OC(C)C(OCc2ccccc2)C(OS(=O)(=O)c2ccc(C)cc2)C1OS(=O)(=O)c1ccc(C)cc1 (stereo unspecified) | > 100 µM | > 100 µM | > 100 µM | > 100 µM | > 100 µM | > 100 µM | > 100 µM | > 100 µM | – | > 100 µM | – | – | – | – | – | – | – | – | – | –
8 | CC1(C)OC2COC3(CNO)OC(C)(C)OC3C2O1 (stereo unspecified) | > 100 µM | > 100 µM | > 100 µM | > 100 µM | > 100 µM | > 100 µM | > 100 µM | > 100 µM | > 100 µM | > 100 µM | – | – | – | – | – | – | – | – | – | –
9 | Cn1cc(-c2csc(-c3cn(C)c4ccccc34)n2)c2cnccc21 | – | 3.71 µM | 3.24 µM | 6.7 µM | 3.1 µM | 3.63 µM | 2.19 µM | 3.2 µM | – | 3.2 µM | – | 0.925 µM | 1.51 µM | 1.98 µM | 1.61 µM | – | 2.68 µM | 1.75 | 1.66 µM | 1.85 µM
10 | C[n+]1c2ccccc2cc2c(CNC(CCCN=C(N)N)C(=O)O)cccc21 (stereo unspecified) | 0.686 µM | 1.14 µM and 5.85 µM | 19.1 µM | 5.11 µM and 7.74 µM | 2.18 µM and 2.99 µM | 1.78 µM | 1.26 µM and 1.07 µM | 1.44 µM and 2.52 µM | 1.92 µM | 2.66 µM and 2.91 µM | – | 0.343 µM | 0.551 µM | 0.339 µM | 4.09 µM | – | 2.42 µM | – | – | –
11 | CC1(C)CC[C@H](C2=CC(=O)c3c(O)ccc(O)c3C2=O)O1 | 1.66 µM and 0.388 µM and 0.227 µM | 7.29 µM and 3.63 µM and 1.83 µM | 9.58 µM and 5.31 µM and 3.21 µM | 20.4 µM and 3.44 µM and 2.12 µM | – | 1.67 µM and 1.64 µM and 0.229 µM | 2.57 µM and 1.3 µM and 0.579 µM | 4.11 µM and 1.64 µM and 0.65 µM | 4.66 µM and 1.13 µM and 1.97 µM | – | 0.632 µM and 0.144 µM and 0.139 µM | 1.08 µM and 0.344 µM and 0.205 µM | 1.71 µM and 0.378 µM and 0.226 µM | 3.17 µM and 1.72 µM and 0.773 µM | 4.93 µM and 2.48 µM and 1.61 µM | 1.78 µM and 0.303 µM and 0.658 µM | 2.27 µM and 0.675 µM and 0.581 µM | – | 2.6 µM and 1.51 µM and 0.382 µM | 0.66 µM and 0.374 µM and 0.0996 µM
12 | COCCOCCOCc1n(Cc2ccc3ccccc3n2)c2ccccc2[n+]1Cc1ccc2ccccc2c1 | 0.876 µM | 1.43 µM | 1.66 µM | 1.92 µM | 1.41 µM | 5.37 µM | 2.06 µM | 13.6 µM | 1.24 µM | 1.4 µM | 0.281 µM | 0.402 µM | 3.48 µM | 0.292 µM | 0.351 µM | 0.333 µM | 0.498 µM | 0.338 | 0.362 µM | 0.769 µM
13 | c1ccc(Cn2cnc3ccc(-c4nc(-c5ccc6c(c5)ncn6C5CCCCC5)cn5ccnc45)cc32)cc1 | – | – | > 100 µM | 6.54 µM | – | – | – | – | – | – | – | – | – | – | 2.14 µM | – | 2.6 µM | – | – | –
14 | CSc1c(C)c(C)nn1-c1ccccc1 | > 100 µM | > 100 µM | > 100 µM | > 100 µM | > 100 µM | > 100 µM | – | > 100 µM | > 100 µM | > 100 µM | – | – | – | – | – | – | – | – | – | –
15 | CCOC1Oc2ccccc2-c2oc(=O)c(Sc3ccc(C)cc3)cc21 (stereo unspecified) | > 100 µM | > 100 µM | > 100 µM | > 100 µM | > 100 µM | > 100 µM | – | > 100 µM | > 100 µM | > 100 µM | 25.2 µM | – | 27.6 µM | 32 µM | 26 µM | 24 µM | 51 µM | 62.3 | 29.5 µM | 37.5 µM
16 | C=CCC1[C@@H](C(C)(C)C(C(C)=O)C(=O)C(=O)OC)OC(C(C)(C)C)N1C(=O)OC (stereo partly specified) | > 100 µM | > 100 µM | – | > 100 µM | > 100 µM | – | > 100 µM | > 100 µM | – | > 100 µM | – | – | – | – | – | – | – | – | – | –
17 | CC(CC(=O)Nc1ccc(NC(=O)CC(C)N=NC(N)=S)cc1)N=NC(N)=S (stereo unspecified) | > 100 µM | > 100 µM | > 100 µM | > 100 µM | > 100 µM | – | > 100 µM | > 100 µM | > 100 µM | > 100 µM | – | – | – | – | – | – | – | – | – | –
18 | C#CCC(N)(CO)C(=O)O (stereo unspecified) | > 100 µM | > 100 µM | > 100 µM | > 100 µM | – | > 100 µM | > 100 µM | > 100 µM | > 100 µM | > 100 µM | – | – | – | – | – | – | – | – | – | –
